Measurements: patent US20250331522A1, “CHLORINE DIOXIDE […] TO PREVENT BLACK ROT DISEASE AND PROMOTE WOUND HEALING IN SWEETPOTATO” (Zhejiang A&F University, priority 2024, published 2025)

What was measured:
C. fimbriata = assay: Inhibition of C. fimbriata in vitro (colony diameter on PDA plate after ClO2 fumigation); type: cell-based, Ceratocystis fimbriata; settings: ClO2 fumigation 4 h, culture 15 d
Experimental: C. fimbriata preserved at −80° C. is thawed and resuscitated at 4° C., 200 μL C. fimbriata is taken into 15 mL PDA medium plates in the ultra-clean table and cultured at 28° C. for 7 d. After 7 d, 5 colonies of C. fimbriata are picked on the medium and inoculated into the expanding culture medium with an inoculation needle for further culture for 7 d. After 7 days, some of the expanding culture plates are used to prepare fungus pieces, and some plates are used to prepare spore suspension. […] The spore concentration is calculated by the blood cell counting plate, and adjusted to 10^6 spore/mL. […]
The expanding culture plate of C. fimbriata cultured in Embodiment 4 is selected, and the fungus piece is prepared by using a 10 mm sterile puncher, the fungus piece is reversely connected to the center of the PDA medium, and the PDA plate is placed in a 10 L fresh-keeping box, and the combined reagents prepared by the method described in Embodiments 1-3 are added, the plate is fumigated with ClO2 for 4 h, the culture plate is moved into a constant temperature incubator at 27° C. for 15 d after the treatment. The colony diameter of the culture plate is measured by the cross method every 3 days, the measurement is repeated three times, and the plate without ClO2 fumigation is used as the blank control.

[1] = tested on: C. fimbriata in sweetpotato; assay: Inhibitory effect on the growth of C. fimbriata in inoculated sweetpotato (lesion diameter and depth); type: in vivo, Ceratocystis fimbriata; Xinxiang sweetpotatoes; settings: fumigation 30 h, storage 15 days at 25° C., humidity 85%
Experimental: C. fimbriata preserved at −80° C. is thawed and resuscitated at 4° C., 200 μL C. fimbriata is taken into 15 mL PDA medium plates in the ultra-clean table and cultured at 28° C. for 7 d. After 7 d, 5 colonies of C. fimbriata are picked on the medium and inoculated into the expanding culture medium with an inoculation needle for further culture for 7 d. After 7 days, some of the expanding culture plates are used to prepare fungus pieces, and some plates are used to prepare spore suspension. Sterile water is added into the culture plate, the mycelium is scraped and filtered through four layers of sterile gauze to remove the mycelium and medium impurities, and the spore suspension of C. fimbriata is obtained. The spore concentration is calculated by the blood cell counting plate, and adjusted to 10^6 spore/mL.
The inhibitory effect of the combined reagents prepared by the method described in Embodiments 1-3 on the growth of C. fimbriata in sweetpotato is investigated, the method is as follows: […]

[2] = tested on: sweetpotato wounds inoculated with C. fimbriata; assay: Promotion of wound-healing ability of sweetpotatoes (disease index after re-inoculation with C. fimbriata); type: in vivo, Xinxiang sweetpotatoes; Ceratocystis fimbriata; settings: fumigation 30 h; spores applied on day 0, 1, 3, 5, 7 of healing; incidence counted after 7 days
Experimental: The effects of the combined reagents prepared by the method described in Embodiments 1-3 on promoting the wound-healing ability of sweetpotatoes are investigated, the method is as follows: […]
After the treatment, the fresh-keeping box is first ventilated, and the sweetpotatoes are transferred into a normal storage incubator (25° C., humidity 85%) for storage. During the storage of sweetpotatoes, 20 μL of fungus solution with a spore concentration of 10^6 spore/mL prepared in Embodiment 4 is evenly applied to the surface of the wounds on the 0th, 1st, 3rd, 5th and 7th day, respectively, the incidence of the disease after 7 days is counted and the disease index is calculated. […] The sweetpotatoes with perforation damage but without ClO2 treatment are used as the control group, and the disease index is calculated by the following formula: […]

SMILES: [O][Cl+][O-] [ClO2, chlorine dioxide]
- growth of C. fimbriata (in words) (C. fimbriata): directly inhibit the growth of C. fimbriata
- diameters and depths of the lesion of inoculated sweetpotatoes (in words) [1]: decreases significantly with the increase of treatment concentration
- resistance to infection / wound healing of sweetpotatoes (disease index, in words) [2]: after 5 days of healing can completely resist the infection of pathogenic fungus
